Data set [1] addresses Genome polyprotein (dengue virus type 2) (UniProt P29990). As to the kind of experiment: Inhibition of Dengue virus 2 NS2B-NS3 protease at 100 uM.
Data set [2] has as its target T1, Glycylpeptide N-tetradecanoyltransferase (Leishmania major, UniProt Q4Q5S8).
T1 sequence (Q4Q5S8 whole entry): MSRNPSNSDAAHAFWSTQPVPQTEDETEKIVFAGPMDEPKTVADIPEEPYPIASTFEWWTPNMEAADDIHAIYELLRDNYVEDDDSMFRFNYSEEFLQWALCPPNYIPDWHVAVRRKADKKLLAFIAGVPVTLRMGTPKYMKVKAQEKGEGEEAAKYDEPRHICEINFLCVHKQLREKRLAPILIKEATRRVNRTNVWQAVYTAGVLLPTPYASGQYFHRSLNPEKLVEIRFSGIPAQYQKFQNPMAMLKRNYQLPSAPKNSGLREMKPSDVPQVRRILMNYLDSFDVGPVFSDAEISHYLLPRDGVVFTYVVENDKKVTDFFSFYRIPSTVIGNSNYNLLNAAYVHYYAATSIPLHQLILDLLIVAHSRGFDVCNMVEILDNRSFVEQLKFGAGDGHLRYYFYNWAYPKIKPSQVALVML

The target of data set [3] is T2, Glycylpeptide N-tetradecanoyltransferase (Leishmania major) (UniProt Q4Q5S8).
T2 sequence (whole entry): T1 sequence (Q4Q5S8 whole entry)

Data set [4] has as its target T2, Glycylpeptide N-tetradecanoyltransferase (Leishmania major). The settings on record: 500 uM.
Data set [5] addresses Glycylpeptide N-tetradecanoyltransferase (Leishmania major, UniProt Q4Q5S8, H398N). As to the kind of experiment: Inhibition of Leishmania major NMT H398N mutant expressed in Escherichia coli Rosetta-2 cells using GSNKSKPK as substrate in presence of MyrCoA after 30 mins by CPM dye based fluorescence assay.
In data set [6] the target is Glycylpeptide N-tetradecanoyltransferase (Leishmania major, UniProt Q4Q5S8, L421Q). As to the kind of experiment: Inhibition of Leishmania major NMT L421Q mutant expressed in Escherichia coli Rosetta-2 cells using GSNKSKPK as substrate in presence of MyrCoA after 30 mins by CPM dye based fluorescence assay.
The target in data set [7] is Glycylpeptide N-tetradecanoyltransferase 1 (Homo sapiens, UniProt P30419, L495M/N473H/Q496L).
Data set [8] concerns human NMT1 versus Leishmania major NMT. As to the kind of experiment: in vitro. The settings on record: human (numerator) and Leishmania major (denominator).
Description: Selectivity index, ratio of Ki for inhibition of N-terminal TEV cleavage site-fused His6 tagged human NMT1 (115 to 496 residues) to Ki for inhibition of N-terminal TEV cleavage site-fused His6 tagged Leishmania major NMT (11 to 421 residues)
Data set [9] concerns the target T3, Glycylpeptide N-tetradecanoyltransferase 1 (Homo sapiens, UniProt P30419).
T3 sequence (P30419 whole entry): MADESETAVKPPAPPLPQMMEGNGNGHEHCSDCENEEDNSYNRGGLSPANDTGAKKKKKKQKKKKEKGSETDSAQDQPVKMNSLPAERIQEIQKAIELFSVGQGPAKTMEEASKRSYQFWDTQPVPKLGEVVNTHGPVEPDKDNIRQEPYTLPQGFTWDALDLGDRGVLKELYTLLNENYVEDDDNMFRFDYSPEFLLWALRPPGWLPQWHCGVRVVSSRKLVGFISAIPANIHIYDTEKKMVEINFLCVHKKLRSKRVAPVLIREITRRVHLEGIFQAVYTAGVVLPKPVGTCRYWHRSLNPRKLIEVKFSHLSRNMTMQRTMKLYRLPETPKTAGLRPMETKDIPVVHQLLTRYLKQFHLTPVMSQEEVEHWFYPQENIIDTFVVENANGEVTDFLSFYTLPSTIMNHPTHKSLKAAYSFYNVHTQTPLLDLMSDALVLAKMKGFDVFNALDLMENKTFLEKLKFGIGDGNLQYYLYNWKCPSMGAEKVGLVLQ

The target in data set [10] is T4, Glycylpeptide N-tetradecanoyltransferase 1 (Homo sapiens, UniProt P30419, A452M/L453V/L462V/L495M/N473H/Q496L/R295Q/W297F).
Data set [11] has as its target T5, NMT1 (glycylpeptide N-tetradecanoyltransferase 1) (Homo sapiens, UniProt P30419).
T5 sequence (P30419 whole entry): T3 sequence (P30419 whole entry)
The settings on record: probe GSNKSKPK peptide.

The target in data set [12] is T4, Glycylpeptide N-tetradecanoyltransferase 1. The settings on record: 0.5 h.

Molecules are shown by their SMILES. Active and inactive are the calls of the source. The calls are words filed in the database; no cut-off is given here. Bounds are passed on as bounds.

Glycylpeptide N-tetradecanoyltransferase (Leishmania major, UniProt Q4Q5S8, L421Q), sequence (Q4Q5S8 whole entry L421Q): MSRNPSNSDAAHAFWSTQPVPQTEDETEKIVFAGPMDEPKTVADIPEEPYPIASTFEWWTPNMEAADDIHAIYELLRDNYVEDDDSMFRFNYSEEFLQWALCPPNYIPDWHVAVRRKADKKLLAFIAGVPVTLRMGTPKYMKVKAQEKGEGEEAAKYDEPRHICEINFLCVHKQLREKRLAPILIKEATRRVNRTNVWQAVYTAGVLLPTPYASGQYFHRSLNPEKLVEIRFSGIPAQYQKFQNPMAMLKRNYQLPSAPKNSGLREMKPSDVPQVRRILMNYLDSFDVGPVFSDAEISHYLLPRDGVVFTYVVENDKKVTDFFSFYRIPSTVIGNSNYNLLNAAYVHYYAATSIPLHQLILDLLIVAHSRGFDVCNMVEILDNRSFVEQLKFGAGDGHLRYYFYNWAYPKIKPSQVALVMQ
T4 sequence (P30419 whole entry R295Q/W297F/A452M/L453V/L462V/N473H/L495M/Q496L): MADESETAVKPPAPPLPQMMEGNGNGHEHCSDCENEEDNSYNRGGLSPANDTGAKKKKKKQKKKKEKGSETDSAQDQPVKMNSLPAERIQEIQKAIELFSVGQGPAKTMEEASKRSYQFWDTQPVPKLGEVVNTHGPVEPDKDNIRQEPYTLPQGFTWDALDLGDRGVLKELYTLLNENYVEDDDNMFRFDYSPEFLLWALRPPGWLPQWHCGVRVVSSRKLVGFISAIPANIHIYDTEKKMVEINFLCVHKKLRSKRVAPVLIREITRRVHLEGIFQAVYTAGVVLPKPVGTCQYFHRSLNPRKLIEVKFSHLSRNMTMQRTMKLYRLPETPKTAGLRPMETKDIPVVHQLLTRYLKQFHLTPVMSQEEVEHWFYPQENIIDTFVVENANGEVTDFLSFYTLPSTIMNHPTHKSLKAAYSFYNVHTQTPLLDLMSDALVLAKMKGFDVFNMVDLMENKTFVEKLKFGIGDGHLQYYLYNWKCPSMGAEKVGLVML
Glycylpeptide N-tetradecanoyltransferase (Leishmania major, UniProt Q4Q5S8, H398N), sequence (Q4Q5S8 whole entry H398N): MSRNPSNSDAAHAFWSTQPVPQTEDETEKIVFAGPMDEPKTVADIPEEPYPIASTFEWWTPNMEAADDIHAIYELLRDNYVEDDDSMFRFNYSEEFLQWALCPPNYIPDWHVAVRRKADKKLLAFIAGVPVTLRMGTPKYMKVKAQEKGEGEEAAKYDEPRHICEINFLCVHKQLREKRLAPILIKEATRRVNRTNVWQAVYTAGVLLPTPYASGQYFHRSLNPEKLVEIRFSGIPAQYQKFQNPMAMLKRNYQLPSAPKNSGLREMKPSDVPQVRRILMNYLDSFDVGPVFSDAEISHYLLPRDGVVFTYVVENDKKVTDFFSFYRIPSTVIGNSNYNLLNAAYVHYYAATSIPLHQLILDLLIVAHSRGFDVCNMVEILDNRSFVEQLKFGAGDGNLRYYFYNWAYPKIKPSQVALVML
Glycylpeptide N-tetradecanoyltransferase 1 (Homo sapiens, UniProt P30419, L495M/N473H/Q496L), sequence (P30419 whole entry N473H/L495M/Q496L): as the sequence (P30419 whole entry R295Q/W297F/A452M/L453V/L462V/N473H/L495M/Q496L) above, with Q295R, F297W, M452A, V453L, V462L counted along it

In general, inhibition refers to the change of the read-out against control, counted positive when it falls. As a reminder, the Ki is a measure of affinity in units of concentration, obtained from inhibition or displacement. For `COc1cccc(-n2cc(-c3ccnc(NCCC4CCCN4C)n3)cn2)c1` (centres undefined), the inhibition result in [1] was “inactive”. Further, the Ki in data set [2] stood at 7.3 nM. Further, the figures for the inhibition entry in [3] and in [4] were “Dose-dependent effect” and 97%, respectively.
For `Cc1nn(C)c(C)c1NS(=O)(=O)c1c(Cl)cc(-c2ccnc(N3CCN(C)CC3)c2)cc1Cl`, the Ki in data set [2] was 1.4 nM; in data set [5], 8.5 nM; in data set [6], 6 nM.
The corresponding values for `O=C(Cc1ccc(F)cc1)Nc1ccc2[nH]cc(C3CCNCC3)c2c1` are 980 nM, 520 nM and 2600 nM.
As to `COc1cccc(Cc2noc(-c3ccccc3OC3CCNCC3)n2)c1`, the Ki stood at 70.8 nM in data set [2], 2100 nM in data set [7], 3300 nM in [9] and 33 nM in data set [10]. In addition, the selectivity ratio in [8] was found to be 47.8.
The corresponding values for `N[C@@H](CC(=O)N1C[C@H](CO)[C@@H](c2ccc(Cl)cc2)C1)Cc1ccc(Cl)cc1` are 280 nM, 420 nM, 2900 nM, 29.2 nM and 10.5.
Turning to `COc1ccccc1-n1cc(-c2ccnc(NCCC3CCCN3C)n2)cn1` (centres undefined), the inhibition entry in data set [1] was “inactive”. For the same compound, the figures for the Ki in data set [2], in data set [9] and in [10] were 19.6 nM, more than 40 nM and 16700 nM, respectively. Moreover, the results for the inhibition entry in data set [3] and in data set [4] were “Dose-dependent effect” and 91%, respectively. In [11], the inhibition at 0.5 h, 500 µM is 59%. In data set [12], the inhibition at 500 µM amounted to 98%.
Consider `Cc1nn(C)c(C)c1N(C)S(=O)(=O)c1c(Cl)cc(CCCN2CCNCC2)cc1Cl`, for which the results for the inhibitory constant (Ki) in data set [2], in data set [5] and in data set [6] were 19.8 nM, 1.6 nM and 2.3 nM, respectively.
Consider `Cc1nn(C)c(C)c1Cc1nnc(-c2cc(Cl)ccc2OC2CCNCC2)o1`, for which, in data set [2], the Ki came out at 24.8 nM.
As for `Cc1cncn1C(C)C(=O)NCc1cccnc1C1CCCN(C)CC1` (centres undefined), the inhibition entry in data set [1] was “inactive”. Also, the inhibition constant Ki in data set [2] amounted to 52.3 nM. Further, the inhibition result is “Dose-dependent effect” in [3] and 90% in [4].
Regarding `Cc1nn(C)c(C)c1N(C)S(=O)(=O)c1c(Cl)cc(CCCN2CCN3CCC[C@@H]3C2)cc1Cl`, the results for the Ki in data set [2], in data set [5] and in [6] were 2 nM, 1.3 nM and 36.6 nM, respectively.

The record behind these values is ChEMBL document CHEMBL4342412, “How To Design Selective Ligands for Highly Conserved Binding Sites: A Case Study Using N-Myristoyltransferases as a Model System” (J Med Chem, 2020).
